Here are results for seven compounds from article PMC2642980 (Bioorganic & medicinal chemistry letters, 2008).

One data set deals with Caco-2 monolayers. The data set can be described thus: Transepithelial transport through Caco-2 monolayers. As to conditions: apical pH 6.0 MES to basolateral pH 7.4 HEPES, 21 days post-seeding. A general note: Caco-2 monolayers are a common model of the intestinal barrier.
For data set [1] the following is noted: cited from earlier work.
The test system of the next data set is vaccinia virus. The data set is classed as cell-based. As to conditions: read-out: EC50 Vaccinia.
Another data set deals with cowpox virus. It is filed as cell-based. As to conditions: read-out: EC50 Cowpox.
For data set [2] the following is noted: rat.
Data set [3] has as its target T1, human PEPT1 transporter (HeLa/hPEPT1 cells) (Homo sapiens, UniProt P46059).
T1 sequence (P46059 1-708): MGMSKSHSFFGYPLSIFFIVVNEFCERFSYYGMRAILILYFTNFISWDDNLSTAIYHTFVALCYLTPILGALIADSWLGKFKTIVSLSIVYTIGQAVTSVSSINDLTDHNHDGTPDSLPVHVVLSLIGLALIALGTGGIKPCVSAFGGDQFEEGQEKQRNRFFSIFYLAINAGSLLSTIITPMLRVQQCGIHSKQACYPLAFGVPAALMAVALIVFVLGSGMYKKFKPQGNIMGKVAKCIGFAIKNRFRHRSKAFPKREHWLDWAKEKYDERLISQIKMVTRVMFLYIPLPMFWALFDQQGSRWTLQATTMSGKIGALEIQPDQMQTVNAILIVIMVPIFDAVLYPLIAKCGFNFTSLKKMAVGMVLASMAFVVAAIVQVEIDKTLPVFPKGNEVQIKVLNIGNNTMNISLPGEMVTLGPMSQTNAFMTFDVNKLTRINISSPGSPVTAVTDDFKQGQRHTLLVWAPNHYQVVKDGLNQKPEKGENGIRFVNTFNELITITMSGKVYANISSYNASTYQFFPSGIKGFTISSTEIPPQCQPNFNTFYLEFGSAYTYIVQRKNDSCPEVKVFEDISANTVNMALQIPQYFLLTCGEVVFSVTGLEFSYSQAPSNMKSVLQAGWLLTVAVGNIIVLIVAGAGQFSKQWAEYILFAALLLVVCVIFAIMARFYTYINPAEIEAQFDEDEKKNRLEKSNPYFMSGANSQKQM
As to the kind of experiment: Direct uptake in HeLa cells overexpressing hPEPT1. As to conditions: fold uptake over control cells not expressing PEPT1.

The conditions of data set [4]: cited from earlier work. The source holds these as a separate data set.

The EC50 is the midpoint of the concentration-response curve.

`Nc1ncnc2c1ncn2[C@@H]1O[C@H](COC(=O)[C@@H](N)Cc2ccccc2)[C@@H](O)[C@@H]1O` [Compound 7l] came in with a Caco-2 permeability in the data set with Caco-2 monolayers of 0.668 cm/s × 10^6. Consider “1-Beta-D-arabinofuranosyladenine [Vidarabine]”, for which the Solubility in water in data set [1] is on record as ~ 0.47 mg/ml. The EC50 with vaccinia virus was determined as 6.2 µM; with cowpox virus, 12.6 µM. In addition, in the data set on Caco-2 monolayers, the Caco-2 permeability is given as 0.083 cm/s × 10^6. The “T1/2 Plasma” value in data set [2] worked out at 25.8 min.

For the compound `CC(C)[C@H](N)C(=O)OCCOCn1cnc2c(=O)[nH]c(N)nc21` [Valacyclovir], the “hPEPT1 control (uptake ratio HeLa/hPEPT1 over HeLa control)” value in data set [3] stood at 19.0. For the compound `CC(C)[C@@H](N)C(=O)OC[C@H]1O[C@@H](n2cnc3c(N)ncnc32)[C@@H](O)[C@@H]1O` [Compound 7a], in the data set with Caco-2 monolayers, the Caco-2 permeability was 0.601 cm/s × 10^6. In the case of `CC[C@H](C)[C@H](N)C(=O)OC[C@H]1O[C@@H](n2cnc3c(N)ncnc32)[C@@H](O)[C@@H]1O` [Compound 7k], the “hPEPT1 control (uptake ratio HeLa/hPEPT1 over HeLa control)” value in data set [3] came to 26.9. The compound further returned a Caco-2 permeability with Caco-2 monolayers of 1.026 cm/s × 10^6. Turning to `O=c1[nH]cnc2c1ncn2[C@@H]1O[C@H](CO)[C@@H](O)[C@@H]1O` [ara-H, ara-hypoxanthine], the “Fold less potent than vidarabine (antiviral activity)” value in data set [4] is on record as “at least 10 fold”.

As to `CC(C)[C@H](N)C(=O)OC[C@H]1O[C@@H](n2cnc3c(N)ncnc32)[C@@H](O)[C@@H]1O` [Compound 7i], the “hPEPT1 control (uptake ratio HeLa/hPEPT1 over HeLa control)” value in data set [3] is 20.7.
